Data on two compounds can be found in patent publication US20220133697A1, “INJECTABLE FORMULATIONS” (Aldeyra Therapeutics, Inc., priority 2018, published 2022).

Data set [1] can be described thus: dark adaptation, separate study. In kind it is in vivo. As to conditions: systemic (IP) doses 5-fold greater than the effective dose in the A2E study, 56 days; data not shown.
The test system of the next data set is A2E. The experiment in a line: A2E formation in retinas of abcr-/- mouse knockout model of macular degeneration. Type of data set: in vivo, mice. As to conditions: 10 mg/kg intraperitoneally daily for 56 days, HPLC, compared with vehicle controls. On the procedure: (§1) A mouse knockout model (abcr−/−) of macular degeneration (MD) was used to test the activities of Compound I-5 and Compound I-22. The retinal transport protein, ABCA4, is not expressed in these mice, allowing retinaldehdye to escape the light cycle and form a toxic metabolite with phosphatidylethanolamine, N-retinylidene-phosphatidylethanolamine (A2E). Mice were treated intraperitoneally (IP) for 56 days with 10 mg/kg Compound I-5 (n=24), Compound I-22 (n=24), or vehicle (n=22), starting at week 10 to 12 of life. An untreated control group (n=12) was sacrificed on the first day of dosing. After treatment, A2E concentrations in retinas were measured by HPLC. Statistical significance from vehicle control was determined by t-test.

The nature of data set [2]: body weight and adverse effects during 56 days daily treatment in the abcr-/- mouse study. In kind it is in vivo, mice. As to conditions: daily treatment for 56 days. As for the experimental part: as §1
The next data set concerns MDA adducts. Description: MDA adducts in the LPS-induced uveitis model. As to conditions: after TO and IVT administration; data not shown. Type of data set: in vivo, female Lewis rats. As for the experimental part: An in vivo study was conducted to assess the efficacy of intravitreal administration of Compound I-5 and I-22 in a rat model of endotoxin induced uveitis, one of the most appropriate models for the study of non-infectious uveitis (NIU) (Smith et al., 1998, Immunol Cell Biol. 76(6):497-512) (Toxikon Study 16-04078-N1). Ocular inflammation was induced in female Lewis rats (n=10/group) by a single, foot pad injection of lipopolysaccharide (LPS) (100 μL) (Herbort et al., 1988, Graefes Arch Clin Exp Ophthalmol. 226(6):553-8). […] Anterior segments were scored using a combined Draize and McDonald-Shattuck scoring system, and posterior segments were scored using 0 to 1 (vitreous, optic disc, retinal vasculature) and 0 to 4 (retinal and choroidal hemorrhage, exudation, and detachment) scales. Statistical significance from vehicle control was determined by ANOVA, followed by Tukey's post hoc test. […] Retinal exams were performed prior to study start and six and 24 hours following LPS administration and scored using a Combined Draize and McDonald Shadduck scoring system, based on assessments of: (a) Retinal vasculopathy; (2) Retinal hemorrhage, exudate or detachment; and (3) Retinal hemorrhage, exudate or detachment.

Data set [3] concerns endotoxin induced uveitis. The experiment in a line: rat model of endotoxin induced uveitis, ocular exam scores. In kind it is in vivo, female Lewis rats. The conditions noted are these: for retina-choroid scores, within-subject statistical analysis (treatment and time): IVT treatment, compared to vehicle control. On the procedure: An in vivo study was conducted to assess the efficacy of intravitreal administration of Compound I-5 and I-22 in a rat model of endotoxin induced uveitis, one of the most appropriate models for the study of non-infectious uveitis (NIU) (Smith et al., 1998, Immunol Cell Biol. 76(6):497-512) (Toxikon Study 16-04078-N1). Ocular inflammation was induced in female Lewis rats (n=10/group) by a single, foot pad injection of lipopolysaccharide (LPS) (100 μL) (Herbort et al., 1988, Graefes Arch Clin Exp Ophthalmol. 226(6):553-8). Compound I-5 or I-22 (50 μg) was topically administered (TO) to the eye at hours 1, 3, 7, 10, and 17, after LPS induction, or by a single intravitreal (IVT) injection (25 μg) 1 hour after LPS induction (n=10 per group). Ocular exams were performed six and 24 hours after LPS injection. Anterior segments were scored using a combined Draize and McDonald-Shattuck scoring system, and posterior segments were scored using 0 to 1 (vitreous, optic disc, retinal vasculature) and 0 to 4 (retinal and choroidal hemorrhage, exudation, and detachment) scales. Statistical significance from vehicle control was determined by ANOVA, followed by Tukey's post hoc test. The test compound, e.g., Compound I-22 (5 mg/mL), was administered intravitreally into each eye (25 μg/eye) within one hour of LPS administration. Balanced salt solution (BSS) served as a vehicle control. Retinal exams were performed prior to study start and six and 24 hours following LPS administration and scored using a Combined Draize and McDonald Shadduck scoring system, based on assessments of: (a) Retinal vasculopathy; (2) Retinal hemorrhage, exudate or detachment; and (3) Retinal hemorrhage, exudate or detachment.

Another data set relates to diabetic macular edema. Description: rat model of diabetic macular edema (STZ-induced diabetes), retinal histology scores. Type of data set: in vivo. On the procedure:
To assess the effect of Compound I-22 in a rat model of diabetic macular edema (DME), Type 1 diabetes was induced in male brown Norway rats by intraperitoneal administration of streptozotocin (STZ; 55 mg/kg). Forty days after STZ administration, animals were tested for diabetes by testing blood glucose levels.
Animals with diabetes were assigned to groups of ten, to receive either vehicle (HPβCD) or Compound I-22. […] On Day 41 (about Week 6) after STZ induction, animals received a single intravitreal injection of Compound I-22 (3.5 μL; 17.5 μg) or vehicle per eye. On Day 57 (about Week 8) after STZ induction, animals received a second intravitreal injection of Compound I-22 or vehicle.
On Day 70 (about Week 10) after STZ induction, animals were euthanized and retinas were processed for histological examination. Sections (3 to 5 μm) were stained with hematoxylin and eosin and evaluated by light microscopy. Changes in retinal thickness were scored on a 0 to 4 scale, with 0 meaning no changes, 1 meaning minimal changes, 2 meaning mild changes, 3 meaning moderate changes, and 4 meaning severe changes, relative to non-diabetic controls. Six microscopic sections were examined for each eye, and retinas were also assessed and scored by a pathologist for changes in vascularity and neutrophil infiltration.

[4] abbreviates: single intravitreal (IVT) injection 25 μg 1 hour after LPS, vs. vehicle.
Setting [5] is: topical (TO) 50 μg at hours 1, 3, 7, 10, 17 after LPS, at 6 hours and 24 hours, compared to vehicle.

`CC(C)(O)c1nc2ccc(Cl)cc2cc1N` [Compound I-5]: the “effect on dark adaptation” value in data set [1] was “no effect”. Besides, in the data set on A2E, the “decrease in formation of A2E” value is 71%. Further, in data set [2], the drug-related adverse effects entry is “nor were any drug-related adverse effects observed” and the “effect on body weight” value is on record as “no effect”. Further, the MDA adducts entry in the data set with MDA adducts is recorded as “Small, although not significant, reductions”. Further, in data set [3], the “retina-choroid scores, within-subject statistical analysis (treatment and time)” value is recorded as “significantly improved”. Besides, the “ocular exam scores (total ocular, anterior chamber and retina-choroid inflammation)” value (from here on “ocular exam scores”) in data set [3] (setting [4]) is on record as “significantly improved”. Moreover, the “ocular exam scores” value in data set [3] (setting [5]) is “significantly improved”.

On to `CC(C)(O)c1cc2oc(-c3ccccc3)nc2cc1N` [Compound I-22], for which the “decrease in formation of A2E” value in the data set with A2E came to 69%. For the same compound, the “reduction in retinal vascularity compared to vehicle, statistical significance” value in the data set on diabetic macular edema (intravitreal 17.5 μg per eye on Day 41 and Day 57 after STZ, FIG. 10) was “not statistically significant”. Besides, the “neutrophil infiltration (score 0 to 4)” value in the data set with diabetic macular edema (intravitreal 17.5 μg per eye on Day 41 and Day 57 after STZ, compared to vehicle, p<0.01) is on record as “significant reduction”. Besides, in the data set on diabetic macular edema (intravitreal 17.5 μg per eye on Day 41 and Day 57 after STZ, compared to vehicle, p<0.05), the “decrease in retinal vascularity score” value is listed as 36%. The “retinal thickness (score 0 to 4)” value in the data set with diabetic macular edema (intravitreal 17.5 μg per eye on Day 41 and Day 57 after STZ, histology Day 70, p<0.01) is listed as “significant reduction”. The “tolerability in the retina” value in the data set on diabetic macular edema (intravitreal injection, rat DME model) is recorded as “well tolerated”. Further, in the data set on diabetic macular edema (measured by retinal thickness, neutrophil infiltration and retinal vascular changes), the retinal inflammation result is “decreased”. For the same compound, in data set [2], the drug-related adverse effects result is given as “nor were any drug-related adverse effects observed” and the “effect on body weight” value is given as “no effect”. Moreover, the MDA adducts entry in the data set on MDA adducts is “Small, although not significant, reductions”. Besides, the “retina-choroid scores, within-subject statistical analysis (treatment and time)” value in data set [3] is on record as “significantly improved”. The “ocular exam scores” value in data set [3] (setting [4]) is “significantly improved”. Also, the “ocular exam scores” value in data set [3] (setting [5]) was “significantly improved”.
